# Source: patent US11214803B2, “Modulators of YAP1 expression” (Ionis Pharmaceuticals, Inc., priority 2019, dated 2022)
# Strand notation (5' to 3'): a small letter for the sugar, then the base; units joined by * are phosphorothioate-linked, units joined directly phosphodiester-linked; [ ] holds rarer units or linkages, { } end groups; capitals alone tell only the bases. k = constrained ethyl (cEt); [5mC] = 5-methylcytosine; d = 2'-deoxy (DNA)
# System: Yap1 mRNA
# Experiment: Antisense inhibition of human Yap1 in A-431 cells by cEt gapmers, single dose (Example 2, RTS4814)
# Format: cell-based
# Outline: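 Free uptake, 2,000 nM, ~48 h, A-431 at 5,000 cells/well. Readout: RT-qPCR (RTS4814), RIBOGREEN-normalized, % UTC. 16-mer 3-10-3 cEt gapmers, full PS backbone, all C as 5-methylcytosine.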
# [1] = Table 24, Yap1 mRNA as percent of untreated control, 3-10-3 cEt gapmers targeting SEQ ID NO.: 1, and 2
# [2] = Table 22, Yap1 mRNA as percent of untreated control, 3-10-3 cEt gapmers, single dose
# [3] = Table 23, Yap1 mRNA as percent of untreated control, 3-10-3 cEt gapmers, single dose
# [4] = Yap1 mRNA as percent of untreated control, A-431 cells, 3-10-3 cEt gapmers targeting SEQ ID NO.: 1, and 2, Table 30
# [5] = Yap1 mRNA as percent of untreated control, A-431 cells, 3-10-3 cEt gapmers targeting SEQ ID NO.: 1, and 2, Table 31
# [6] = Table 33, Yap1 mRNA, percent of untreated control, 3-10-3 cEt gapmers targeting SEQ ID NO.: 1, and 2
# [7] = Table 18, A-431 cells, 5,000 cells per well, free uptake, 2,000 nM modified oligonucleotide, approx. 48 hours, RTS4814, normalized to RIBOGREEN, Yap1 mRNA as percent of untreated control
# [8] = Table 19, A-431 cells, 5,000 cells per well, free uptake, 2,000 nM modified oligonucleotide, approx. 48 hours, RTS4814, normalized to RIBOGREEN, Yap1 mRNA as percent of untreated control
# [9] = Table 21, Yap1 mRNA, percent of untreated control, 3-10-3 cEt gapmers targeting SEQ ID NO.: 1 and 2
# [10] = Table 25, Yap1 mRNA as percent of untreated control, 3-10-3 cEt gapmers targeting SEQ ID NO.: 1, and 2
substance,measurement,setting,value
1074122 (antisense k[5mC]*kT*kG*d[5mC]*dG*dA*dG*dG*d[5mC]*dA*d[5mC]*dT*d[5mC]*kG*kG*kA) [Compound 1074122],YAP1 (% UTC),[1],73 % UTC
1074826 (kA*kA*kA*dT*d[5mC]*d[5mC]*dA*d[5mC]*d[5mC]*dT*dG*dA*dG*k[5mC]*kA*k[5mC]; antisense) [Compound 1074826],YAP1 (% UTC),[1],51 % UTC
716395 (kG*k[5mC]*k[5mC]*dG*d[5mC]*dA*dG*d[5mC]*d[5mC]*dT*d[5mC]*dT*d[5mC]*k[5mC]*kT*kT; antisense) [Compound 716395],YAP1 (% UTC),"Table 5, A-431 cells, 5,000 cells per well, free uptake, 2,000 nM modified oligonucleotide, approx. 48 hours, RTS4814, normalized to RIBOGREEN, Yap1 mRNA relative to untreated control cells",92 % UTC
1075914 (kA*kT*kT*dT*dA*dG*dG*dA*dT*dG*d[5mC]*d[5mC]*dT*kT*kT*kA; antisense) [Compound 1075914],YAP1 (% UTC),[1],14 % UTC
1075272 (antisense kA*kA*kT*dT*dA*dG*d[5mC]*d[5mC]*dA*dG*d[5mC]*dA*dT*kG*k[5mC]*kA) [Compound 1075272],YAP1 (% UTC),[2],110 % UTC
1075017 (antisense k[5mC]*kT*kT*dA*dA*dA*dG*dT*dG*dA*dT*dA*d[5mC]*kA*k[5mC]*k[5mC]) [Compound 1075017],YAP1 (% UTC),[3],19 % UTC
716454 (k[5mC]*kG*kA*dG*dA*dT*dT*dT*dA*dA*dA*dT*dA*kA*kG*kG; antisense) [Compound 716454],YAP1 (% UTC),"A-431 cells, 5,000 cells per well, free uptake, 2,000 nM modified oligonucleotide, approx. 48 hours, RTS4814, normalized to RIBOGREEN, Table 4, asterisk (*) = targets amplicon region of primer probe set",27 % UTC
1076402 (antisense k[5mC]*kG*kT*dA*dA*dT*dT*dA*dT*dT*dT*dT*dT*kG*k[5mC]*kT) [compound 1076402],YAP1 (% UTC),"Table 32, Yap1 mRNA, percent of untreated control, 3-10-3 cEt gapmers targeting SEQ ID NO.: 1, and 2",38 % UTC
1075654 (kT*kA*kT*dT*dA*dA*dG*dA*d[5mC]*dG*dA*dA*dT*k[5mC]*k[5mC]*kA; antisense) [Compound 1075654],YAP1 (% UTC),"Table 20, Yap1 mRNA, percent of untreated control, 3-10-3 cEt gapmers targeting SEQ ID NO.: 1 and 2",76 % UTC
1075817 (k[5mC]*k[5mC]*kT*dA*dA*dA*dG*dA*dA*dG*dT*d[5mC]*dT*kT*kG*kG; antisense) [Compound 1075817],YAP1 (% UTC),[3],100 % UTC
1074954 (antisense k[5mC]*k[5mC]*kG*dG*dG*dT*dT*dT*dT*dT*dG*dT*d[5mC]*kA*kT*k[5mC]) [Compound 1074954],YAP1 (% UTC),[1],91 % UTC
1075632 (antisense kT*k[5mC]*k[5mC]*d[5mC]*dT*dA*dT*dA*dA*d[5mC]*d[5mC]*dA*dA*kA*kT*kG) [compound 1075632],YAP1 (% UTC),[4],95 % UTC
1075025 (antisense kA*k[5mC]*kT*dT*dA*dA*dG*dA*dA*d[5mC]*dT*d[5mC]*dA*k[5mC]*kA*k[5mC]) [compound 1075025],YAP1 (% UTC),[5],58 % UTC
1075664 (antisense kG*k[5mC]*kT*dA*dA*dA*dT*dA*dG*dG*dT*dG*dG*kT*kT*kA) [compound 1075664],YAP1 (% UTC),[4],87 % UTC
1075827 (kA*kT*kA*d[5mC]*dT*dA*dT*dA*d[5mC]*d[5mC]*dT*dA*dA*kG*kG*kA; antisense) [compound 1075827],YAP1 (% UTC),[6],60 % UTC
1075568 (kT*kT*kA*dT*dT*dT*dA*dA*dG*dT*dT*dG*dG*kG*kA*kG; antisense) [compound 1075568],YAP1 (% UTC),[4],23 % UTC
1076137 (k[5mC]*kA*k[5mC]*d[5mC]*dA*dA*d[5mC]*dA*dA*d[5mC]*d[5mC]*dT*d[5mC]*kA*kT*kG; antisense) [Compound 1076137],YAP1 (% UTC),[3],45 % UTC
1075091 (kA*kA*kA*d[5mC]*dA*dA*d[5mC]*dG*dA*dA*dT*dG*dA*kT*kT*kG; antisense) [compound 1075091],YAP1 (% UTC),[6],65 % UTC
1075696 (kT*kT*kA*d[5mC]*dA*dA*dA*dA*dG*dT*dT*dA*d[5mC]*kT*kG*k[5mC]; antisense) [compound 1075696],YAP1 (% UTC),[4],28 % UTC
1074628 (antisense kG*k[5mC]*k[5mC]*dT*dG*dT*dT*dA*dT*dG*dA*dA*d[5mC]*k[5mC]*k[5mC]*kT) [Compound 1074628],YAP1 (% UTC),[7],5 % UTC
1075785 (k[5mC]*kA*kT*dT*dT*dT*dA*dT*dA*dG*dG*dG*d[5mC]*k[5mC]*kA*kT; antisense) [Compound 1075785],YAP1 (% UTC),[3],2 % UTC
1074661 (antisense kG*kA*kA*dT*dT*dT*d[5mC]*dA*dT*dT*dA*d[5mC]*dT*kA*k[5mC]*kT) [Compound 1074661],YAP1 (% UTC),[8],36 % UTC
1075239 (antisense kT*k[5mC]*kT*dT*dA*dA*dA*d[5mC]*dA*dG*dG*dT*dG*k[5mC]*k[5mC]*kA) [Compound 1075239],YAP1 (% UTC),[9],27 % UTC
1075856 (antisense k[5mC]*k[5mC]*kT*dA*dA*dT*d[5mC]*dA*dA*dG*dT*dT*d[5mC]*kT*kG*k[5mC]) [compound 1075856],YAP1 (% UTC),[4],40 % UTC
1075592 (k[5mC]*kG*kT*dA*dA*dT*dA*dA*dT*d[5mC]*dA*d[5mC]*d[5mC]*kT*kT*kA; antisense) [Compound 1075592],YAP1 (% UTC),[2],55 % UTC
1075943 (kG*kT*kA*dT*dA*dT*d[5mC]*dA*dA*dA*d[5mC]*d[5mC]*dT*kT*kT*kT; antisense) [Compound 1075943],YAP1 (% UTC),[9],15 % UTC
1076101 (kA*kA*kA*dT*dA*dA*dG*dG*dG*dA*d[5mC]*dT*dA*k[5mC]*kT*kT; antisense) [Compound 1076101],YAP1 (% UTC),[8],71 % UTC
1075443 (antisense kG*kA*kT*dT*dA*dA*d[5mC]*dA*dG*dA*dG*d[5mC]*dT*kA*kG*kA) [compound 1075443],YAP1 (% UTC),[6],29 % UTC
1075816 (kT*kA*kG*dT*dA*dT*dA*dA*dA*dG*d[5mC]*dA*dG*kG*kG*k[5mC]; antisense) [Compound 1075816],YAP1 (% UTC),[2],7 % UTC
1074472 (kA*kA*k[5mC]*d[5mC]*d[5mC]*d[5mC]*d[5mC]*d[5mC]*d[5mC]*dA*d[5mC]*d[5mC]*dG*kA*k[5mC]*k[5mC]; antisense) [Compound 1074472],YAP1 (% UTC),[2],107 % UTC
1074192 (antisense kG*kA*k[5mC]*dG*dG*d[5mC]*dG*dG*dG*d[5mC]*d[5mC]*d[5mC]*dT*kG*k[5mC]*k[5mC]) [compound 1074192],YAP1 (% UTC),[4],108 % UTC
1075780 (kT*kA*kT*dA*dA*dT*dA*dA*dT*d[5mC]*d[5mC]*dA*dG*kA*kA*k[5mC]; antisense) [Compound 1075780],YAP1 (% UTC),[7],98 % UTC
1075185 (kG*k[5mC]*k[5mC]*d[5mC]*dA*dA*dG*dA*dA*d[5mC]*dA*d[5mC]*dT*kG*kG*kT; antisense) [compound 1075185],YAP1 (% UTC),[5],78 % UTC
1075243 (antisense k[5mC]*kT*kT*dA*dG*dT*dA*dA*dG*dA*dA*dT*dT*kG*kT*k[5mC]) [Compound 1075243],YAP1 (% UTC),[10],4 % UTC
1075507 (kG*kT*kA*d[5mC]*dA*dA*d[5mC]*d[5mC]*dT*dA*dG*dT*dG*kA*kT*kA; antisense) [compound 1075507],YAP1 (% UTC),[6],82 % UTC
1074571 (antisense kT*kA*kT*dG*dA*dA*d[5mC]*d[5mC]*dT*dA*d[5mC]*dT*d[5mC]*kA*k[5mC]*kT) [Compound 1074571],YAP1 (% UTC),[10],37 % UTC
1076517 (antisense k[5mC]*kA*kT*dA*dA*dT*dA*dA*dG*dA*d[5mC]*dT*dA*kA*kA*k[5mC]) [Compound 1076517],YAP1 (% UTC),[8],102 % UTC
1074245 (antisense kA*kG*kA*dA*dG*dT*dA*dT*d[5mC]*dT*d[5mC]*dT*dG*kA*k[5mC]*k[5mC]) [Compound 1074245],YAP1 (% UTC),[8],5 % UTC
1076458 (antisense k[5mC]*kT*kT*dA*dA*dT*dT*dA*dG*d[5mC]*d[5mC]*dT*d[5mC]*kA*kG*kT) [Compound 1076458],YAP1 (% UTC),[1],6 % UTC
